Results on 18 compounds are retold here after ChEMBL document CHEMBL1143531, “Synthesis, in vitro, and in vivo antibacterial activity of nocathiacin I thiol-Michael adducts” (2005).

Molecules are shown by their SMILES. Values after ≈ are worked out from the molar mass of the structure shown.

The MIC is the smallest concentration in the dilution series that meets the test's criterion for growth inhibition. The low end stands for inhibition by little substance, the high end for a need for much substance.

Holding throughout (assay type): functional
One test deals with Streptococcus pneumoniae. The test is described as follows: In vitro minimum inhibitory concentration against penicillin resistant Streptococcus pneumoniae A28272.
For a further test, the system named is Enterococcus faecalis. The test is described as follows: In vitro minimum inhibitory concentration against methicillin sensitive Enterococcus faecalis A20688.
For another test, the system named is Mus musculus. Nature of the test: In vivo protective dose required for mouse against systemic lethal […] infection. Particulars: read-out: PD50.
The test system of the next test is Staphylococcus aureus. Nature of the test: In vitro minimum inhibitory concentration against methicillin sensitive […] A15090.

Regarding `CO/C(C)=C1/NC(=O)C([C@@H](C)O)NC(=O)c2csc(n2)-c2cc(O)c(-c3nc(C(=O)NC(SC4CN5CCC4C5)C(N)=O)cs3)nc2-c2csc(n2)[C@@H]2COC(=O)c3c4c5c(cccc5n3O)COC(=O)[C@@H](O[C@H]3C[C@](C)(O)[C@H](N(C)C)[C@H](C)O3)[C@@H](OC4)[C@H](NC(=O)c3csc1n3)c1nc(cs1)C(=O)N2` (some centres not stated), the results for the MIC in the test on Streptococcus pneumoniae, against Enterococcus faecalis and against Staphylococcus aureus were 0.25 µg/mL (≈ 0.161 µM), 2 µg/mL (≈ 1.29 µM) and 2 µg/mL (≈ 1.29 µM), respectively. Also, the ED50 with Mus musculus came out at 2.5 mg/kg.

On to `CO/C(C)=C1/NC(=O)C([C@@H](C)O)NC(=O)c2csc(n2)-c2cc(O)c(-c3nc(C(=O)NC(SC(CC(=O)O)C(=O)O)C(N)=O)cs3)nc2-c2csc(n2)[C@@H]2COC(=O)c3c4c5c(cccc5n3O)COC(=O)[C@@H](O[C@H]3C[C@](C)(O)[C@H](N(C)C)[C@H](C)O3)[C@@H](OC4)[C@H](NC(=O)c3csc1n3)c1nc(cs1)C(=O)N2` (some centres not stated), for which the figures for the minimum inhibitory concentration (MIC) against Streptococcus pneumoniae, in the test on Enterococcus faecalis and with Staphylococcus aureus were 0.25 µg/mL (≈ 0.159 µM), 4 µg/mL (≈ 2.54 µM) and 4 µg/mL (≈ 2.54 µM), respectively. Moreover, the ED50 with Mus musculus was above 10 mg/kg.

With `CO/C(C)=C1/NC(=O)C([C@@H](C)O)NC(=O)c2csc(n2)-c2cc(O)c(-c3nc(C(=O)NC(SCC(N)C(=O)O)C(N)=O)cs3)nc2-c2csc(n2)[C@@H]2COC(=O)c3c4c5c(cccc5n3O)COC(=O)[C@@H](O[C@H]3C[C@](C)(O)[C@H](N(C)C)[C@H](C)O3)[C@@H](OC4)[C@H](NC(=O)c3csc1n3)c1nc(cs1)C(=O)N2` (some centres not stated), the values for the MIC in the test with Streptococcus pneumoniae, against Enterococcus faecalis and in the test on Staphylococcus aureus were 2 µg/mL (≈ 1.29 µM), 4 µg/mL (≈ 2.59 µM) and 1 µg/mL (≈ 0.647 µM), respectively.

Take `CO/C(C)=C1/NC(=O)C([C@@H](C)O)NC(=O)c2csc(n2)-c2cc(O)c(-c3nc(C(=O)NC(SCCN(C)C)C(N)=O)cs3)nc2-c2csc(n2)[C@@H]2COC(=O)c3c4c5c(cccc5n3O)COC(=O)[C@@H](O[C@H]3C[C@](C)(O)[C@H](N(C)C)[C@H](C)O3)[C@@H](OC4)[C@H](NC(=O)c3csc1n3)c1nc(cs1)C(=O)N2` (some centres not stated): the figures for the MIC in the test on Streptococcus pneumoniae, in the test on Enterococcus faecalis and in the test on Staphylococcus aureus were 0.015 µg/mL (≈ 0.00981 µM), 0.25 µg/mL (≈ 0.164 µM) and 0.125 µg/mL (≈ 0.0818 µM), respectively. Further, in the test with Mus musculus, the ED50 was 1 mg/kg.

Consider `CO/C(C)=C1/NC(=O)C([C@@H](C)O)NC(=O)c2csc(n2)-c2cc(O)c(-c3nc(C(=O)NC(SCCc4nnn[nH]4)C(N)=O)cs3)nc2-c2csc(n2)[C@@H]2COC(=O)c3c4c5c(cccc5n3O)COC(=O)[C@@H](O[C@H]3C[C@](C)(O)[C@H](N(C)C)[C@H](C)O3)[C@@H](OC4)[C@H](NC(=O)c3csc1n3)c1nc(cs1)C(=O)N2` (some centres not stated), for which the MIC stood at 0.25 µg/mL (≈ 0.161 µM) against Streptococcus pneumoniae, 32 µg/mL (≈ 20.6 µM) against Enterococcus faecalis and 2 µg/mL (≈ 1.29 µM) with Staphylococcus aureus. In addition, the ED50 in the test on Mus musculus was above 10 mg/kg.

With `CO/C(C)=C1/NC(=O)C([C@@H](C)O)NC(=O)c2csc(n2)-c2cc(O)c(-c3nc(C(=O)NC(SC[C@@H]4NC(=O)NC4=O)C(N)=O)cs3)nc2-c2csc(n2)[C@@H]2COC(=O)c3c4c5c(cccc5n3O)COC(=O)[C@@H](O[C@H]3C[C@](C)(O)[C@H](N(C)C)[C@H](C)O3)[C@@H](OC4)[C@H](NC(=O)c3csc1n3)c1nc(cs1)C(=O)N2` (some centres not stated), the figures for the MIC in the test with Streptococcus pneumoniae, in the test with Enterococcus faecalis and in the test with Staphylococcus aureus were 0.03 µg/mL (≈ 0.0191 µM), 128 µg/mL (≈ 81.5 µM) and 4 µg/mL (≈ 2.55 µM), respectively. Also, the ED50 with Mus musculus was above 10 mg/kg.

Take `CCN(CC)CCSC(NC(=O)c1csc(-c2nc3c(cc2O)-c2nc(cs2)C(=O)NC([C@@H](C)O)C(=O)N/C(=C(\C)OC)c2nc(cs2)C(=O)N[C@@H]2c4nc(cs4)C(=O)N[C@@H](COC(=O)c4c5c6c(cccc6n4O)COC(=O)[C@@H](O[C@H]4C[C@](C)(O)[C@H](N(C)C)[C@H](C)O4)[C@H]2OC5)c2nc-3cs2)n1)C(N)=O` (some centres not stated): the figures for the MIC against Streptococcus pneumoniae, in the test with Enterococcus faecalis and against Staphylococcus aureus were 0.015 µg/mL (≈ 0.00964 µM), 0.25 µg/mL (≈ 0.161 µM) and 0.125 µg/mL (≈ 0.0803 µM), respectively. The ED50 in the test on Mus musculus stood at 1.1 mg/kg.

Take `CO/C(C)=C1/NC(=O)C([C@@H](C)O)NC(=O)c2csc(n2)-c2cc(O)c(-c3nc(C(=O)NC(SCCS(=O)(=O)[O-])C(N)=O)cs3)nc2-c2csc(n2)[C@@H]2COC(=O)c3c4c5c(cccc5n3O)COC(=O)[C@@H](O[C@H]3C[C@](C)(O)[C@H](N(C)C)[C@H](C)O3)[C@@H](OC4)[C@H](NC(=O)c3csc1n3)c1nc(cs1)C(=O)N2.[Na+]` (some centres not stated): the MIC turned out to be 0.06 µg/mL in the test on Streptococcus pneumoniae, 128 µg/mL with Enterococcus faecalis and 4 µg/mL in the test on Staphylococcus aureus. In the test on Mus musculus, the ED50 is above 10 mg/kg.

Regarding `CCN(CC)CCS(=O)(=O)C(NC(=O)c1csc(-c2nc3c(cc2O)-c2nc(cs2)C(=O)NC([C@@H](C)O)C(=O)N/C(=C(\C)OC)c2nc(cs2)C(=O)N[C@@H]2c4nc(cs4)C(=O)N[C@@H](COC(=O)c4c5c6c(cccc6n4O)COC(=O)[C@@H](O[C@H]4C[C@](C)(O)[C@H](N(C)C)[C@H](C)O4)[C@H]2OC5)c2nc-3cs2)n1)C(N)=O` (some centres not stated), the MIC with Streptococcus pneumoniae amounted to 0.007 µg/mL (≈ 0.00441 µM); with Enterococcus faecalis it was 0.03 µg/mL (≈ 0.0189 µM); in the test on Staphylococcus aureus, 0.06 µg/mL (≈ 0.0378 µM). Further, the ED50 with Mus musculus amounted to 1.4 mg/kg.

As for `COCC(Cn1ccnc1)SC(NC(=O)c1csc(-c2nc3c(cc2O)-c2nc(cs2)C(=O)NC([C@@H](C)O)C(=O)N/C(=C(\C)OC)c2nc(cs2)C(=O)N[C@@H]2c4nc(cs4)C(=O)N[C@@H](COC(=O)c4c5c6c(cccc6n4O)COC(=O)[C@@H](O[C@H]4C[C@](C)(O)[C@H](N(C)C)[C@H](C)O4)[C@H]2OC5)c2nc-3cs2)n1)C(N)=O` (some centres not stated), the MIC against Streptococcus pneumoniae is 0.03 µg/mL (≈ 0.0188 µM); in the test with Enterococcus faecalis, 0.125 µg/mL (≈ 0.0783 µM); in the test on Staphylococcus aureus, 0.25 µg/mL (≈ 0.157 µM). Further, the ED50 with Mus musculus was 1.4 mg/kg.

For `CO/C(C)=C1/NC(=O)C([C@@H](C)O)NC(=O)c2csc(n2)-c2cc(O)c(-c3nc(C(=O)NC(SCC(NC(C)=O)C(=O)O)C(N)=O)cs3)nc2-c2csc(n2)[C@@H]2COC(=O)c3c4c5c(cccc5n3O)COC(=O)[C@@H](O[C@H]3C[C@](C)(O)[C@H](N(C)C)[C@H](C)O3)[C@@H](OC4)[C@H](NC(=O)c3csc1n3)c1nc(cs1)C(=O)N2` (some centres not stated), the MIC against Streptococcus pneumoniae is 0.125 µg/mL (≈ 0.0788 µM); against Enterococcus faecalis it was 8 µg/mL (≈ 5.04 µM); with Staphylococcus aureus, 2 µg/mL (≈ 1.26 µM). Further, the ED50 with Mus musculus is above 10 mg/kg.

For the compound `CO/C(C)=C1/NC(=O)C([C@@H](C)O)NC(=O)c2csc(n2)-c2cc(O)c(-c3nc(C(=O)NC(SCCC(=O)O)C(N)=O)cs3)nc2-c2csc(n2)[C@@H]2COC(=O)c3c4c5c(cccc5n3O)COC(=O)[C@@H](O[C@H]3C[C@](C)(O)[C@H](N(C)C)[C@H](C)O3)[C@@H](OC4)[C@H](NC(=O)c3csc1n3)c1nc(cs1)C(=O)N2` (some centres not stated), the MIC with Streptococcus pneumoniae stood at 0.01 µg/mL (≈ 0.00654 µM); in the test with Staphylococcus aureus, 1 µg/mL (≈ 0.654 µM). Also, the ED50 in the test with Mus musculus was above 10 mg/kg.

With `CO/C(C)=C1/NC(=O)C([C@@H](C)O)NC(=O)c2csc(n2)-c2cc(O)c(-c3nc(C(=O)NC(SCCN=C(N)N)C(N)=O)cs3)nc2-c2csc(n2)[C@@H]2COC(=O)c3c4c5c(cccc5n3O)COC(=O)[C@@H](O[C@H]3C[C@](C)(O)[C@H](N(C)C)[C@H](C)O3)[C@@H](OC4)[C@H](NC(=O)c3csc1n3)c1nc(cs1)C(=O)N2` (some centres not stated), the MIC is 2 µg/mL (≈ 1.3 µM) in the test with Streptococcus pneumoniae, above 128 µg/mL in the test with Enterococcus faecalis and 4 µg/mL (≈ 2.59 µM) in the test on Staphylococcus aureus.

Take `CO/C(C)=C1/NC(=O)C([C@@H](C)O)NC(=O)c2csc(n2)-c2cc(O)c(-c3nc(C(=O)NC(SCCc4cnccn4)C(N)=O)cs3)nc2-c2csc(n2)[C@@H]2COC(=O)c3c4c5c(cccc5n3O)COC(=O)[C@@H](O[C@H]3C[C@](C)(O)[C@H](N(C)C)[C@H](C)O3)[C@@H](OC4)[C@H](NC(=O)c3csc1n3)c1nc(cs1)C(=O)N2` (some centres not stated): the values for the MIC against Streptococcus pneumoniae, with Enterococcus faecalis and against Staphylococcus aureus were 0.015 µg/mL (≈ 0.00959 µM), 0.25 µg/mL (≈ 0.16 µM) and 0.125 µg/mL (≈ 0.0799 µM), respectively. Also, the ED50 in the test with Mus musculus was determined as 4.4 mg/kg.

As for `CO/C(C)=C1/NC(=O)C([C@@H](C)O)NC(=O)c2csc(n2)-c2cc(O)c(-c3nc(C(=O)NC(SCC(=O)O)C(N)=O)cs3)nc2-c2csc(n2)[C@@H]2COC(=O)c3c4c5c(cccc5n3O)COC(=O)[C@@H](O[C@H]3C[C@](C)(O)[C@H](N(C)C)[C@H](C)O3)[C@@H](OC4)[C@H](NC(=O)c3csc1n3)c1nc(cs1)C(=O)N2` (some centres not stated), the figures for the MIC in the test on Streptococcus pneumoniae, with Enterococcus faecalis and against Staphylococcus aureus were 0.125 µg/mL (≈ 0.0825 µM), 1 µg/mL (≈ 0.66 µM) and 2 µg/mL (≈ 1.32 µM), respectively. The ED50 with Mus musculus was above 10 mg/kg.

Turning to `CO/C(C)=C1/NC(=O)C([C@@H](C)O)NC(=O)c2csc(n2)-c2cc(O)c(-c3nc(C(=O)NC(SCCP(=O)([O-])O)C(N)=O)cs3)nc2-c2csc(n2)[C@@H]2COC(=O)c3c4c5c(cccc5n3O)COC(=O)[C@@H](O[C@H]3C[C@](C)(O)[C@H](N(C)C)[C@H](C)O3)[C@@H](OC4)[C@H](NC(=O)c3csc1n3)c1nc(cs1)C(=O)N2.[Na+]` (some centres not stated), the MIC worked out at 0.25 µg/mL against Streptococcus pneumoniae, 32 µg/mL in the test with Enterococcus faecalis and 2 µg/mL in the test with Staphylococcus aureus.

Regarding `CO/C(C)=C1/NC(=O)C([C@@H](C)O)NC(=O)c2csc(n2)-c2cc(O)c(-c3nc(C(=O)NC(C(N)=O)S(=O)(=O)C4C5CCN4CC5)cs3)nc2-c2csc(n2)[C@@H]2COC(=O)c3c4c5c(cccc5n3O)COC(=O)[C@@H](O[C@H]3C[C@](C)(O)[C@H](N(C)C)[C@H](C)O3)[C@@H](OC4)[C@H](NC(=O)c3csc1n3)c1nc(cs1)C(=O)N2` (some centres not stated), the MIC with Streptococcus pneumoniae was 0.06 µg/mL (≈ 0.0379 µM); in the test with Enterococcus faecalis it was 1 µg/mL (≈ 0.631 µM); in the test on Staphylococcus aureus, 0.5 µg/mL (≈ 0.316 µM).

Turning to `C=C(NC(=O)c1csc(-c2nc3c(cc2O)-c2nc(cs2)C(=O)N[C@@H]([C@@H](C)O)C(=O)N/C(=C(\C)OC)c2nc(cs2)C(=O)N[C@@H]2c4nc(cs4)C(=O)N[C@@H](COC(=O)c4c5c6c(cccc6n4O)COC(=O)[C@@H](O[C@H]4C[C@](C)(O)[C@H](N(C)C)[C@H](C)O4)[C@H]2OC5)c2nc-3cs2)n1)C(N)=O` [MJ347-81F4 A], the figures for the MIC in the test with Streptococcus pneumoniae, against Enterococcus faecalis and in the test with Staphylococcus aureus were 0.002 µg/mL (≈ 0.00139 µM), 0.03 µg/mL (≈ 0.0209 µM) and 0.007 µg/mL (≈ 0.00487 µM), respectively. Moreover, the ED50 with Mus musculus was 0.8 mg/kg.
